Test results reported in US12552783B2, “Modulators of proteolysis and associated methods of use” (Arvinas Operations, Inc., priority 2018, dated 2026).

Molecular target: KRas (Homo sapiens, UniProt P01116, G12C)
Experiment: KRas degradation in NCI-H2030 cells by Western blot, normalized to GAPDH (data of Table 14)
Assay type: cell-based
Parameters: host or cells: NCI-H2030
Settings: for Dmax: NCI-H2030; for Percent Degradation at Indicated Concentration (μM): H2030
Summary of the method: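 After a day without serum, the G12C-homozygous cells received each compound at 0.3, 1 and 3 μM, with VHL-based degraders left for 24 h and other compounds for 72 h. DC50 is the concentration giving half-maximal degradation and DMax the maximal degradation, both taken from KRas levels normalized to GAPDH.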

Structure (SMILES) | Percent Degradation at Indicated Concentration (μM): 0.3 (H2030 cells, 0.3 μM) | Percent Degradation at Indicated Concentration (μM): 1 (H2030 cells, 1 μM) | Percent Degradation at Indicated Concentration (μM): 3 (H2030 cells, 3 μM) | Dmax (H2030 cells) [%] | Percent Degradation at Indicated Concentration (μM) (0.3 μM) | Percent Degradation at Indicated Concentration (μM) (1 μM) | Percent Degradation at Indicated Concentration (μM) (3 μM) | Dmax [%]
CCC(=O)N1CCN(c2nc(NCCC(=O)N(C)CCOCCOCCOCCOCCOc3cc(-c4scnc4C)ccc3CNC(=O)[C@@H]3C[C@@H](O)CN3C(=O)C(c3cc(C)no3)C(C)C)nc3c(F)c(-c4cc(O)cc5ccccc45)c(Cl)cc23)CC1 (stereo partly drawn) [compound 336, (2S,4R)-N-(2-((18-((6-chloro-8-fluoro-7-(3-hydroxynaphthalen-1-yl)-4-(4-propionylpiperazin-1-yl)quinazolin-2-yl)amino)-15-methyl-16-oxo-3,6,9,12-tetraoxa-15-azaoctadecyl)oxy)-4-(4-methylthiazol-5-yl)benzyl)-4-hydroxy-1-(3-methyl-2-(3-methylisoxazol-5-yl)butanoyl)pyrrolidine-2-carboxamide] | C (C ≤ 35) | C (C ≤ 35) | C (C ≤ 35) | ≤ 35 |  |  |  | 
C=CC(=O)N1CCN(c2nc(NCCC(=O)N(C)CCOc3cc(-c4scnc4C)ccc3CNC(=O)[C@@H]3C[C@@H](O)CN3C(=O)[C@@H](c3cc(C)no3)C(C)C)nc3c(F)c(-c4cc(O)cc5ccccc45)c(Cl)cc23)CC1 [compound 337] |  |  |  |  | C (Percent Degradation: C ≤ 35) | C (Percent Degradation: C ≤ 35) | C (Percent Degradation: C ≤ 35) | ≤ 35
C=CC(=O)N1CCN(c2nc(NCCC(=O)N(C)CCOc3cc(-c4scnc4C)ccc3CNC(=O)[C@@H]3C[C@@H](O)CN3C(=O)[C@H](c3cc(C)no3)C(C)C)nc3c(F)c(-c4cc(O)cc5ccccc45)c(Cl)cc23)CC1 [compound 338, (2S,4R)-N-(2-(2-(3-((4-(4-acryloylpiperazin-1-yl)-6-chloro-8-fluoro-7-(3-hydroxynaphthalen-1-yl)quinazolin-2-yl)amino)-N-methylpropanamido)ethoxy)-4-(4-methylthiazol-5-yl)benzyl)-4-hydroxy-1-((S)-3-methyl-2-(3-methylisoxazol-5-yl)butanoyl)pyrrolidine-2-carboxamide] |  |  |  |  | C (Percent Degradation: C ≤ 35) | C (Percent Degradation: C ≤ 35) | C (Percent Degradation: C ≤ 35) | ≤ 35
C=CC(=O)N1CCN(c2nc(NCCC(=O)N(C)CCOCCOc3cc(-c4scnc4C)ccc3CNC(=O)[C@@H]3C[C@@H](O)CN3C(=O)[C@@H](c3cc(C)no3)C(C)C)nc3c(F)c(-c4cc(O)cc5ccccc45)c(Cl)cc23)CC1 [compound 339] | C (C ≤ 35) | C (C ≤ 35) | C (C ≤ 35) | ≤ 35 |  |  |  | 
C=CC(=O)N1CCN(c2nc(NCCC(=O)N(C)CCOCCOc3cc(-c4scnc4C)ccc3CNC(=O)[C@@H]3C[C@@H](O)CN3C(=O)[C@H](c3cc(C)no3)C(C)C)nc3c(F)c(-c4cc(O)cc5ccccc45)c(Cl)cc23)CC1 [compound 340, (2S,4R)-N-(2-(2-(2-(3-((4-(4-acryloylpiperazin-1-yl)-6-chloro-8-fluoro-7-(3-hydroxynaphthalen-1-yl)quinazolin-2-yl)amino)-N-methylpropanamido)ethoxy)ethoxy)-4-(4-methylthiazol-5-yl)benzyl)-4-hydroxy-1-((S)-3-methyl-2-(3-methylisoxazol-5-yl)butanoyl)pyrrolidine-2-carboxamide] | C (C ≤ 35) | C (C ≤ 35) | C (C ≤ 35) | ≤ 35 |  |  |  | 
C=CC(=O)N1CCN(c2nc(NCCC(=O)N(C)CCOCCOCCOc3cc(-c4scnc4C)ccc3CNC(=O)[C@@H]3C[C@@H](O)CN3C(=O)[C@@H](c3cc(C)no3)C(C)C)nc3c(F)c(-c4cc(O)cc5ccccc45)c(Cl)cc23)CC1 [compound 341, (2S,4R)-N-(2-(2-(2-(2-(3-((4-(4-acryloylpiperazin-1-yl)-6-chloro-8-fluoro-7-(3-hydroxynaphthalen-1-yl)quinazolin-2-yl)amino)-N-methylpropanamido)ethoxy)ethoxy)ethoxy)-4-(4-methylthiazol-5-yl)benzyl)-4-hydroxy-1-((R)-3-methyl-2-(3-methylisoxazol-5-yl)butanoyl)pyrrolidine-2-carboxamide] |  |  |  |  | C (Percent Degradation: C ≤ 35) | C (Percent Degradation: C ≤ 35) | C (Percent Degradation: C ≤ 35) | ≤ 35
C=CC(=O)N1CCN(c2nc(NCCC(=O)N(C)CCOCCOCCOc3cc(-c4scnc4C)ccc3CNC(=O)[C@@H]3C[C@@H](O)CN3C(=O)[C@H](c3cc(C)no3)C(C)C)nc3c(F)c(-c4cc(O)cc5ccccc45)c(Cl)cc23)CC1 [compound 342, (2S,4R)-N-(2-(2-(2-(2-(3-((4-(4-acryloylpiperazin-1-yl)-6-chloro-8-fluoro-7-(3-hydroxynaphthalen-1-yl)quinazolin-2-yl)amino)-N-methylpropanamido)ethoxy)ethoxy)ethoxy)-4-(4-methylthiazol-5-yl)benzyl)-4-hydroxy-1-((S)-3-methyl-2-(3-methylisoxazol-5-yl)butanoyl)pyrrolidine-2-carboxamide] |  |  |  |  | C (Percent Degradation: C ≤ 35) | C (Percent Degradation: C ≤ 35) | C (Percent Degradation: C ≤ 35) | ≤ 35
C=CC(=O)N1CCN(c2nc(NCCC(=O)N(C)CCOCCOCCOCCOc3cc(-c4scnc4C)ccc3CNC(=O)[C@@H]3C[C@@H](O)CN3C(=O)[C@@H](c3cc(C)no3)C(C)C)nc3c(F)c(-c4cc(O)cc5ccccc45)c(Cl)cc23)CC1 [compound 343, (2S,4R)-N-(2-((15-((4-(4-acryloylpiperazin-1-yl)-6-chloro-8-fluoro-7-(3-hydroxynaphthalen-1-yl)quinazolin-2-yl)amino)-12-methyl-13-oxo-3,6,9-trioxa-12-azapentadecyl)oxy)-4-(4-methylthiazol-5-yl)benzyl)-4-hydroxy-1-((R)-3-methyl-2-(3-methylisoxazol-5-yl)butanoyl)pyrrolidine-2-carboxamide] |  |  |  |  | C (Percent Degradation: C ≤ 35) | C (Percent Degradation: C ≤ 35) | C (Percent Degradation: C ≤ 35) | ≤ 35
C=CC(=O)N1CCN(c2nc(NCCC(=O)N(C)CCOCCOCCOCCOc3cc(-c4scnc4C)ccc3CNC(=O)[C@@H]3C[C@@H](O)CN3C(=O)[C@H](c3cc(C)no3)C(C)C)nc3c(F)c(-c4cc(O)cc5ccccc45)c(Cl)cc23)CC1 [compound 344] |  |  |  |  | C (Percent Degradation: C ≤ 35) | C (Percent Degradation: C ≤ 35) | C (Percent Degradation: C ≤ 35) | ≤ 35
C=CC(=O)N1CCN(c2nc(NCCC(=O)N(C)CCOCCOCCOCCOCCOc3cc(-c4scnc4C)ccc3CNC(=O)[C@@H]3C[C@@H](O)CN3C(=O)[C@@H](c3cc(C)no3)C(C)C)nc3c(F)c(-c4cc(O)cc5ccccc45)c(Cl)cc23)CC1 [compound 345, (2S,4R)-N-(2-((18-((4-(4-acryloylpiperazin-1-yl)-6-chloro-8-fluoro-7-(3-hydroxynaphthalen-1-yl)quinazolin-2-yl)amino)-15-methyl-16-oxo-3,6,9,12-tetraoxa-15-azaoctadecyl)oxy)-4-(4-methylthiazol-5-yl)benzyl)-4-hydroxy-1-((R)-3-methyl-2-(3-methylisoxazol-5-yl)butanoyl)pyrrolidine-2-carboxamide] | C (C ≤ 35) | C (C ≤ 35) | C (C ≤ 35) | ≤ 35 |  |  |  | 
C=CC(=O)N1CCN(c2nc(NCCC(=O)N(C)CCOCCOCCOCCOCCOc3cc(-c4scnc4C)ccc3CNC(=O)[C@@H]3C[C@@H](O)CN3C(=O)[C@H](c3cc(C)no3)C(C)C)nc3c(F)c(-c4cc(O)cc5ccccc45)c(Cl)cc23)CC1 [compound 346, (2S,4R)-N-(2-((18-((4-(4-acryloylpiperazin-1-yl)-6-chloro-8-fluoro-7-(3-hydroxynaphthalen-1-yl)quinazolin-2-yl)amino)-15-methyl-16-oxo-3,6,9,12-tetraoxa-15-azaoctadecyl)oxy)-4-(4-methylthiazol-5-yl)benzyl)-4-hydroxy-1-((S)-3-methyl-2-(3-methylisoxazol-5-yl)butanoyl)pyrrolidine-2-carboxamide] |  |  |  |  | C (Percent Degradation: C ≤ 35) | C (Percent Degradation: C ≤ 35) | C (Percent Degradation: C ≤ 35) | ≤ 35
Cc1ncsc1-c1ccc([C@H](C)NC(=O)[C@@H]2C[C@@H](O)CN2C(=O)[C@@H](NC(=O)COCC/C=C/C(=O)N2CCN(c3nc(NCCC(=O)N(C)C)nc4c(F)c(-c5cc(O)cc6ccccc56)c(Cl)cc34)CC2)C(C)(C)C)cc1 [compound 363, (2S,4R)-1-((2S)-2-(2-(((E)-5-(4-(6-chloro-2-((3-(dimethylamino)-3-oxopropyl)amino)-8-fluoro-7-(3-hydroxynaphthalen-1-yl)quinazolin-4-yl)piperazin-1-yl)-5-oxopent-3-en-1-yl)oxy)acetamido)-3,3-dimethylbutanoyl)-4-hydroxy-N-((S)-1-(4-(4-methylthiazol-5-yl)phenyl)ethyl)pyrrolidine-2-carboxamide] |  |  |  |  | C (Percent Degradation: C ≤ 35) | C (Percent Degradation: C ≤ 35) | C (Percent Degradation: C ≤ 35) | ≤ 35
